{"source": "patent US7537887B2", "about": "“Net, a transcription factor of the TCF family, as regulator of angiogenic factor expression” (Aventis Pharma S.A., priority 2000, dated 2009)", "molecules": {"B1": {"name": "VEGFa: recombinant human VEGF-A (R&D) (protein)", "chain": "APTTEGEQKSHEVIKFMDVYQRSYCRPIETLVDIFQEYPDEIEYIFKPSCVPLMRCAGCCNDEALECVPTSESNITMQIMRIKPHQSQHIGEMSFLQHSRCECRPKKDRTKPENHCEPCSERRKHLFVQDPQTCKCSCKNTDSRCKARQLELNERTCRCDKPRR"}}, "key": {"Net": {"test_system": "Net", "details": "inhibitor 10 μM for 30 min; FIG. 3 lanes 3, 4", "method": "NIH3T3 cells were transfected as described above with the control vector for GPCR (pCEFL) or the vector for GPCR ([…]). 14 hours later, cells were washed and left in the growth medium for 2.5 hours. The cells were then treated with SB 203580 (10 μM) (Alexis Corp.) or U0126 (10 μM) (Promega) for 30 min. After 6 hours, extracts were analysed by SDS-PAGE and Western-blotting with antibodies against phospho-serine 365 Net (antibody 2F3, Ducret et al. (Oncogene, in press) or activated ERK (Promega).\nPhosphorylation of endogenous Net was followed with a phospho-specific antibody that recognises phospho-serine 365, which is important for phosphorylation induced activation of Net by ERK and p38 signalling cascades.\nNIH3T3 cells were transfected as described above with the control vector for GPCR (pCEFL) or the vector for GPCR (pCEFL-GPCR). 14 hours later, cells were washed and left in the growth medium for 2.5 hours. The cells were then treated with SB 203580 (10 μM) (Alexis Corp.) or U0126 (10 μM) (Promega) for 30 min. After 6 hours, extracts were analysed by SDS-PAGE and Western-blotting with antibodies against phospho-serine 365 Net [Antibody 2F3 , Giovane et al. (Genomics (1995) 29:769-72)] or activated ERK (Promega)."}, "ERK": {"test_system": "ERK", "test": "ERK activation in GPCR-transfected NIH3T3 cells (Western blot, activated ERK antibody)", "assay_type": "cell-based", "details": "10 μM; FIG. 3", "description": "FIG. 3: Phosphorylation of endogenous Net."}, "NES binding to CRM1": {"biological_target": "NES binding to CRM1 (Homo sapiens, UniProt O14980)", "sequence (O14980 whole entry)": "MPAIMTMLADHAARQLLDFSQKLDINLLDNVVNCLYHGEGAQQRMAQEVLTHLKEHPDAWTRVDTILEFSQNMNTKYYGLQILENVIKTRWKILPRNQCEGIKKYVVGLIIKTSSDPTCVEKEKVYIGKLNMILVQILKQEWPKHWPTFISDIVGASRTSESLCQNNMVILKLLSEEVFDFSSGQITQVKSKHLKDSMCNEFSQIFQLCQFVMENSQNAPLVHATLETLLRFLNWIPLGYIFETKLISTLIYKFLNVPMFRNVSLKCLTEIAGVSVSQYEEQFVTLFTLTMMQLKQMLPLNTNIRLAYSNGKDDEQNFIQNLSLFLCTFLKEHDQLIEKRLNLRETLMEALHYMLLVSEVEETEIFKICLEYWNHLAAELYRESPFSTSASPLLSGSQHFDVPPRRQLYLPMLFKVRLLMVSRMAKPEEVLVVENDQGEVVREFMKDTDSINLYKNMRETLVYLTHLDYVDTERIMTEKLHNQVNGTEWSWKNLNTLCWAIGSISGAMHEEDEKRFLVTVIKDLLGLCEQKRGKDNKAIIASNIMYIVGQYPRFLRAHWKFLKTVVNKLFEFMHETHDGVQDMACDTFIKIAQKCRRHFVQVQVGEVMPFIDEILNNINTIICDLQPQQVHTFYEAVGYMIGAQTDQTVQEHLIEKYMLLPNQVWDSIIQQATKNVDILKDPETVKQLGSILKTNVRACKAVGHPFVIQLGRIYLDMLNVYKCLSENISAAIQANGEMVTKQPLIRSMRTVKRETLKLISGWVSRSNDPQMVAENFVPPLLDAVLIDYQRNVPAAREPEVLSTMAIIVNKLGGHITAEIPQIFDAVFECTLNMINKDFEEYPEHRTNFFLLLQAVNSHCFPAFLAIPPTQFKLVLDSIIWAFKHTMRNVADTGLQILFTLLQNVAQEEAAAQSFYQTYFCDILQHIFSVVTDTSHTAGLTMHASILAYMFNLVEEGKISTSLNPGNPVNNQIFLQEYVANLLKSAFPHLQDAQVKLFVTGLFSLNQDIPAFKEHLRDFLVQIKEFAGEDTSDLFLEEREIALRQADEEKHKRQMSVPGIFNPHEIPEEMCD", "details": "cited from earlier work"}, "HUVEC cells": {"test_system": "HUVEC cells", "test": "Microtubule formation by HUVEC cells on Matrigel induced by conditioned media from transfected NIH3T3 cells", "assay_type": "cell-based", "details": "10 ng/ml recombinant human VEGF added to conditioned medium; FIG. 1d, 1f", "method": "FIG. 1: Microtubule formation by HUVEC cells on Matrigel induced by conditioned media from differentially transfected NIH3T3 cells. NIH3T3 cells were transfected by pCEFL-GPCR alone (FIG. 1a); pCEFL-GPCR with p601D-antisense-Net (FIG. 1c) or p601D-transdominant-Net (FIG. e). Before incubation with HUVEC cells, some of the conditioned media were incubated with either: (b) 0.2 μg/ml of anti-mouse-VEGF polyclonal antibody (total goat IgG; R&D SYSTEMS) or with (d and f) 10 ng/ml of recombinant human VEGF-A (R&D). The plates were observed after 24 hours (phase contrast, original magnification, ×40).\na. NIH3T3 cells (C11) were transfected by the calcium phosphate technique with pCEFL-KSHVGPCR (mouse EF12 promoter) and the AntiNet expression vector or the corresponding empty vector (p601D: Beddinton et al.1989,Development 106:37-46). 16 hours after applying the precipitate, the cells were washed twice with DMEM, incubated in DMEM with 0,05% FCS for 48 hours. The medium was collected and either tested immediately or stored at −80° C.\nb. HUVEC cells (passage 4-6) were grown in DMEM/F12K containing 10% FCS, Heparine (50 ng/mnl), ECGF(Endothelial Cell Growth Factor, Sigma, 50 ng/ml) and Glutamine (2 mM).\nc. The wells of 24-multiwell plates were coated with […] of Growth Factor Reduced MATRIGEL Matrix (Collaborative Biomedical Products) at 4° C. and incubated for 30 min at 37° C.\nd. […]"}}, "data": [{"molecule": "C[S+]([O-])c1ccc(-c2nc(-c3ccncc3)c(-c3ccc(F)cc3)[nH]2)cc1", "note": "(centres unmarked) [SB 203580, 4-[5-(4-fluorophenyl)4-4-(pyridinyl)-1H-imidazol-2-yl]phenyl methyl sulfoxide]", "values": [{"measurement": "GPCR induced phosphorylation of Net (phospho-serine 365)", "setting": "Net", "value": "induction was dependent on both the p38 and ERK pathways"}, {"measurement": "ERK activation", "setting": "ERK", "value": "did not inhibit ERK activation"}]}, {"molecule": "N#CC(=C(N)Sc1ccccc1N)C(C#N)=C(N)Sc1ccccc1N", "note": "[U 0126, 1,4-diamino-2,3-dicyano-1,4 bis[2-aminophenylthio]butadiene]", "values": [{"measurement": "GPCR induced phosphorylation of Net (phospho-serine 365)", "setting": "Net", "value": "induction was dependent on both the p38 and ERK pathways"}]}, {"molecule": "CCC(=C/[C@H](C)C/C=C/C(C)=C/[C@@H](C)C(=O)[C@@H](C)[C@H](O)[C@@H](C)C/C(C)=C/C(=O)O)/C=C/[C@@H]1OC(=O)C=C[C@@H]1C", "note": "[leptomycin B]", "values": [{"measurement": "active nuclear export of the Net protein induced by the JNK pathway", "setting": "NES binding to CRM1", "value": "inhibited"}]}, {"molecule": "B1", "values": [{"measurement": "microtubule inducing activity of conditioned medium from Net down-regulated GPCR cells after adding VEGFa", "setting": "HUVEC cells", "value": "restored microtubule inducing activity"}]}]}
